The conditions of data set [1]: humans; cited from earlier work.
Another data set concerns the target PCP RECEPTOR
The data set can be described thus: PCP receptor binding assay ([3H]-TCP displacement, brain membranes). More on the design: species or system guinea-pig (male Hartley). To be noted: for potency at PCP receptors (in words): hydrochloride. In a few lines: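 Guinea-pig brain-plus-cerebellum membranes (1.7 mg protein) were incubated 1 h at 23° C with competitor. σ sites used 2 nM [3H]-d-SKF-10,047 in 0.1 M Tris pH 7.4, with 0.1 mM d-SKF-10,047 for nonspecific binding. PCP sites used 1 nM [3H]-TCP in 5 mM Tris pH 7.4, with 0.1 mM phencyclidine for nonspecific binding. Filter-bound radioactivity was counted.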

The conditions of data set [2]: literature; cited from earlier work.
In the next data set the target is T1, SIGMA RECEPTOR (Cavia porcellus, UniProt Q60492).
T1 construct: Two milliter aliquots of the brain membrane preparation, containing 1.7 mg of protein; tissue Pel-Freeze (Rogers, Arkansas); host or cells: guinea-pig brains plus cerebella, membranes
Put plainly: Sigma receptor binding assay ([3H]-d-SKF-10,047 displacement, brain membranes). The settings on record: for SIGMA RECEPTOR SLOPE: Table 1, slope of dose response curve; for potency at σ receptors (in words): hydrochloride. The arrangement: species or system guinea-pig (male Hartley). In a few lines:
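Guinea-pig brain-plus-cerebellum membranes (1.7 mg protein) in 0.1 M Tris-HCl pH 7.4 incubated 1 h at 23°C with 2 nM [3H]-d-SKF-10,047 and competitor, quadruplicate. Nonspecific binding defined by 0.1 mM d-SKF-10,047; bound ligand collected on GF/C filters, counted by liquid scintillation.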

In the next data set the target is α1 -ADRENOCEPTOR
Put plainly: α1-adrenoceptor binding ([3H]-prazosin). More on the design: species or system guinea-pig. The settings on record: Table 4; IC50 and nM only stated in text; read-out: α1 -ADRENOCEPTOR
An excerpt: (§1) This example illustrates the testing of compounds of this invention in dopamine D2, 5-HT2, muscarinic acetylcholine, α1 -adrenoceptor and β-adrenoceptor receptor assays. The receptor assay methods are described in Eur. J. Pharmacol., 155:345 (1988) except that in the β-adrenoceptor assay, [^125 I]-pindolol was used instead of [^3 H] dihydroalprenolol.
(§2) In this study, guinea-pig brains were used for binding studies. Homogenization and centrifugation procedures for preparation of brain membranes for each receptor assay were the same as described in Example 4 for the σ and PCP receptors. However, brain regions, tissue contents, and buffers may differ depending on the assay. Conditions of binding assays for various receptors were as follows:
For α1 -adrenoceptor assay, [^3 H]-prazosin (0.4 nM) was incubated in a 1 ml assay (50 mM Tris-HCl, pH 7.4) for 1 hour at 23° C. with membranes from 1 mg of whole brain minus cerebellum.
(§3) Filtration and washing conditions were the same as described above for the σ receptor assay. Nonspecific binding for each receptor was defined by the inclusion of 1 μM haloperidol for dopamine D2, 1 μM haloperidol for 5-HT2, 10 μM scopolamine for muscarinic acetylcholine, 10 μM prazosin for α1 -adrenoceptor, and 0.2 μM 1-propranolol for β-adrenoceptor. Retained radioactivity was measured by liquid scintillation spectrometry except for ^125 I-pindolol which was measured by the LKB gamma counter.
(§4) Programs in Biomed. 17:107 (1983)].

A further data set deals with T2, DOPAMINE D2 (Cavia porcellus, UniProt H0VE83).
T2 construct: printed as cerebral cortical tissue, [3H]spiroperidol, haloperidol blank
The data set can be described thus: Dopamine D2 receptor binding ([3H]-spiroperidol). More on the design: species or system guinea-pig.
From the text: as §1, §2
For dopamine D2 assay, 3 H-spiroperidol (0.15 nM) was incubated in a 2 ml assay (50 mM Tris-HCl, pH 7.4) for 2 hours at 23° C. with membranes from 12 mg of cerebral cortical tissue.
as §3, §4

Another data set deals with MUSCARINIC ACETYLCHOLINE
It counts as binding, guinea-pig.
From the text: as §1, §2
For muscarinic acetylcholine assay, […]) [^3 H]-quinuclidinyl benzylate ([^3 H]-QNB) was incubated in a 2 ml assay (50 mM Tris-HCl, pH 7.4) for 2 hours at 23° C. with membranes from 2 mg of whole brain minus cerebellum.
as §3, §4

The target in a further data set is 5-HT2 (Cavia porcellus, UniProt A0A286Y537). The data set can be described thus: 5-HT2 receptor binding. To be noted: for IC50: Table 4, IC50 and nM only stated in text, read-out: 5-HT2. The arrangement: species or system guinea-pig.
From the text: as §1, §2, §3, §4

The target in the next data set is β-ADRENOCEPTOR
Put plainly: β-adrenoceptor binding ([125I]-pindolol). The arrangement: species or system guinea-pig. To be noted: Table 4; IC50 and nM only stated in text; read-out: β-ADRENOCEPTOR
From the text: as §1, §2
For β-adrenoceptor, [^125 I]-pindolol (0.05 nM) was incubated in a 1 ml assay (50 mM Tris-HCl, pH 7.4) for 1 hr at 23° C. with membranes from 1 mg of whole brain minus cerebellum.
as §3, §4

For a further data set, the system named is σ receptors. To be noted: literature; cited from earlier work.
Another data set relates to σ binding sites. The settings on record: microinjections into red nucleus and substantia nigra; cited from earlier work.
A further data set relates to dopamine D-2 receptor. To be noted: literature; cited from earlier work.
For data set [3] the following is noted: clinical trials; cited from earlier work.
The test system of data set [4] is climbing behavior in mice. To be noted: cited from earlier work.
The subject of a further data set is σ receptor. To be noted: rat spinal cord and brain membranes; cited from earlier work.
Data set [5] relates to conditioned avoidance responses in rat. To be noted: cited from earlier work.
In data set [6] the test system is postsynaptic dopamine receptors. The settings on record: mesolimbic area; cited from earlier work.
Setting [7] is: Table 1, mean ± error (n), read-out: PCP RECEPTOR IC50.
The mark [8] stands for this setting: Table 4, IC50 and nM only stated in text, read-out: PCP.
[9] abbreviates: Table 4, IC50 and nM only stated in text, read-out: MUSCARINIC ACETYLCHOLINE
Setting [10] is: read-out: potency (IC50) at muscarinic acetylcholine receptor.
Where [11] appears, read: Table 4, IC50 and nM only stated in text, read-out: SIGMA.

Each structure is given as a SMILES string. Entries after “also recorded” stand apart in the source; their conditions may differ. Where two headings read alike, the source gives them in different places.

Sequence of 5-HT2 (A0A286Y537 1-470): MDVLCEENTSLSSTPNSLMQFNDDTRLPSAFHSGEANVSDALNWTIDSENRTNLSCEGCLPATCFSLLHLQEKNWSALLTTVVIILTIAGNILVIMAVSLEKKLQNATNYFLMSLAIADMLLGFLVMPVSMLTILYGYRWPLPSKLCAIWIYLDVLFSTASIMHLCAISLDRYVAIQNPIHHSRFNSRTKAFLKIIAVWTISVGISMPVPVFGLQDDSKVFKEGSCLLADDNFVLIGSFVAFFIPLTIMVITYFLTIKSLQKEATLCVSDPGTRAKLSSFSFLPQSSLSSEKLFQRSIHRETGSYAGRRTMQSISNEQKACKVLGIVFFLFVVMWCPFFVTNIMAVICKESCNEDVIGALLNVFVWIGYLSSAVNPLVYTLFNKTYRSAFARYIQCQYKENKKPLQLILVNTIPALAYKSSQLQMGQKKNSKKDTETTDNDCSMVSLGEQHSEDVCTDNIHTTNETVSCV
T1 sequence (Q60492 whole entry): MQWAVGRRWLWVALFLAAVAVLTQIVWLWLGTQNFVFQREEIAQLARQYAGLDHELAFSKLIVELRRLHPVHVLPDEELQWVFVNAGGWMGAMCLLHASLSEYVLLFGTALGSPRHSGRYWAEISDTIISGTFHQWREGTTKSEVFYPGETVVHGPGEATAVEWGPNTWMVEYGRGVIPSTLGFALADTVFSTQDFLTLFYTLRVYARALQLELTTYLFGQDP
T2 sequence (H0VE83 entry or part of it): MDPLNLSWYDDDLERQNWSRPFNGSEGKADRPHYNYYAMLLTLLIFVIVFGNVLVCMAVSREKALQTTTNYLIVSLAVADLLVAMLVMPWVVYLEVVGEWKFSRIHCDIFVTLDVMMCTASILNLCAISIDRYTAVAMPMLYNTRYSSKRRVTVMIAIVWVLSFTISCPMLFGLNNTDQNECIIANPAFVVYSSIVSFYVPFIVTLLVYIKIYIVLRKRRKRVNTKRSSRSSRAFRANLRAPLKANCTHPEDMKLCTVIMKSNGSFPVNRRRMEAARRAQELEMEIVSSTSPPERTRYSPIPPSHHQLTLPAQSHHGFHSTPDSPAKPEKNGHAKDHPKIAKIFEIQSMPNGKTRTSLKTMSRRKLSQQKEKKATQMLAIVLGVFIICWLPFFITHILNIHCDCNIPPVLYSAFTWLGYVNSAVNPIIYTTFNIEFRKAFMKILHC

For the molecule `c1ccc(C2(N3CCCCC3)CCCCC2)cc1` [Compound 1, 1-(1-phenylcylohexyl)piperidine, reference compound], the psychotic reactions result in data set [1] was “causes psychotic reactions such as hallucinations, thought disorders and paranoid delusions similar to an acute schizophrenic episode”. At PCP RECEPTOR (setting [7]), the IC50 is 45 ± 5 nM. Moreover, in data set [2], the “motor and behavioral effects” value was “alter gross motor activity and spatial alternation performance and to induce stereotypic movements”. Moreover, the “SIGMA RECEPTOR SLOPE” value on SIGMA RECEPTOR is reported as 0.95 ± 0.12.

On to `CCN(CC)CCOC(=O)C1(c2ccccc2)CCCCC1.Cl` [Compound 15, 2-(Diethylamino)ethyl 1-phenylcyclohexane-1-carboxylate hydrochloride], for which the IC50 came out at 30100 nM at α1 -ADRENOCEPTOR; 40900 nM on PCP RECEPTOR (setting [7]); 40900 nM at PCP RECEPTOR (setting [8]); 189 ± 35 nM in the data set on MUSCARINIC ACETYLCHOLINE (setting [9]); 189 nM in the data set with MUSCARINIC ACETYLCHOLINE (setting [10]); 2180 nM on 5-HT2. Also, the IC50 is 81900 nM on β-ADRENOCEPTOR, 30 ± 5 nM at SIGMA RECEPTOR (setting [11]) and less than 100 nM at SIGMA RECEPTOR (read-out: IC50 at σ receptors). In addition, on DOPAMINE D2, the “potency at dopamine D-2 receptors (in words)” value was “moderate potencies at dopamine D-2 and 5-HT2 receptors”. Further, in the data set with PCP RECEPTOR, the “potency at PCP receptors (in words)” value was “inactive in the PCP assay; also recorded: very weak or inactive in the PCP assay; also recorded: negligible; also recorded: low potency at PCP receptors”. In addition, in the data set with MUSCARINIC ACETYLCHOLINE, the “potency at muscarinic acetylcholine receptors (in words)” value is reported as “quite potent at muscarinic acetylcholine receptors”. Also, the “potency at 5-HT2 receptors (in words)” value at 5-HT2 was “moderate potencies at dopamine D-2 and 5-HT2 receptors”. For the same molecule, the “SIGMA RECEPTOR SLOPE” value at SIGMA RECEPTOR came out at 0.66 ± 0.16. Also, the “potency at σ receptors (in words)” value on SIGMA RECEPTOR is on record as “σ receptor potency increased; also recorded: very potent in the σ assay; also recorded: very high”.

Turning to `CN(C)CCOC(=O)C1(c2ccccc2)CCCCC1.Cl` [Compound 19, 2-(Dimethylamino)ethyl 1-phenylcyclohexane-1-carboxylate hydrochloride], the IC50 at α1 -ADRENOCEPTOR came out at 29000 nM; at PCP RECEPTOR (setting [7]), 21700 nM; at PCP RECEPTOR (setting [8]), 21700 nM; in the data set on MUSCARINIC ACETYLCHOLINE (setting [9]), 750 ± 36 nM; in the data set with MUSCARINIC ACETYLCHOLINE (setting [10]), 750 nM; on 5-HT2 it was 1410 nM. Besides, the figures for the IC50 at β-ADRENOCEPTOR, at SIGMA RECEPTOR (setting [11]) and on SIGMA RECEPTOR (read-out: IC50 at σ receptors) were 85700 nM, 9.2 ± 0.8 nM and less than 100 nM, respectively. In addition, at DOPAMINE D2, the “potency at dopamine D-2 receptors (in words)” value is “moderate potencies at dopamine D-2 and 5-HT2 receptors”. The “potency at PCP receptors (in words)” value in the data set with PCP RECEPTOR is “inactive in the PCP assay; also recorded: very weak or inactive in the PCP assay; also recorded: negligible; also recorded: low potency at PCP receptors”. In the data set on MUSCARINIC ACETYLCHOLINE, the “potency at muscarinic acetylcholine receptors (in words)” value is given as “quite potent at muscarinic acetylcholine receptors”. Further, the “potency at 5-HT2 receptors (in words)” value on 5-HT2 is “moderate potencies at dopamine D-2 and 5-HT2 receptors”. Moreover, the “SIGMA RECEPTOR SLOPE” value at SIGMA RECEPTOR was determined as 0.54 ± 0.02. Moreover, the “potency at σ receptors (in words)” value on SIGMA RECEPTOR is “σ receptor potency increased; also recorded: very potent in the σ assay; also recorded: very high”.

On to `Cc1ccccc1NC(=N)Nc1ccccc1C` [DTG, 1,3-di-o-tolylguanidine], for which the “affinity / binding at σ receptors (in words)” value (“affinity / binding” below) in the data set with σ receptors is “bind to σ receptors”. Also, the contralateral circling behavior result with σ binding sites is “produce vigorous contralateral circling behavior”.

On to `O=C(CCCN1CCC(O)(c2ccc(Cl)cc2)CC1)c1ccc(F)cc1` [haloperidol, 4-[4-(p-chlorophenyl)-4-hydroxypiperidino]-4'-fluorobutyrophenone], for which the “affinity / binding” value in the data set with σ receptors is recorded as “high affinity for the σ site; also recorded: bind to σ receptors”. In addition, in the data set on dopamine D-2 receptor, the “dopamine D-2 receptor antagonism (in words)” value is given as “potent dopamine D-2 receptor antagonist”.

For `CCN1CCC[C@H]1CNC(=O)c1c(OC)ccc(Br)c1OC` [remoxipride], the “affinity / binding” value in the data set on σ receptors was “potent and selective σ receptor ligands”. For the same molecule, the clinical antipsychotic effects result in data set [3] is reported as “display clinical antipsychotic effects”.

`C[C@@H]1CN(CCCn2c3ccccc3c3ccccc32)C[C@H](C)N1` [rimcazole, cis-9-[3-(3,5-dimethyl-1-piperazinyl)propyl]carbozole]: the cataleptic state entry in data set [4] (associated with EPS) is “without producing the cataleptic state”. For the same molecule, the climbing behavior result in data set [4] is given as “antagonize climbing behavior in mice”. In the data set on σ receptor, the “inhibition of specific binding of NAN” value is given as “competitively inhibit specific binding of the σ receptor ligand NAN”. In the data set on σ receptors, the “affinity / binding” value was “potent and selective σ receptor ligands; also recorded: high-affinity, σ-selective”. For the same molecule, in [5], the conditioned avoidance responses entry was “did not influence conditioned avoidance responses in rat”. Also, the clinical antipsychotic effects entry in [3] is on record as “display clinical antipsychotic effects”. Further, in data set [6], the “action at postsynaptic dopamine receptors” value was “did not exert its action at the level of postsynaptic dopamine receptors in the mesolimbic area”.

These data come from patent US5086054A, “Novel arylcycloalkanepolyalkylamines” (SRI International, priority 1990, dated 1992).
